Read-outs that look alike come from different tables or passages of the source.

The nature of series [1]: Scavenging activity on DPPH radicals (antioxidant effect). To be noted: 10 μM addition; decrease in A517 of DPPH after 20 min at room temperature. The procedure: Radical scavenging activity was assayed in duplicates according to Blois, M. S., Nature, 1958, 181:1199. The reaction mixture contained 3 ml of 01 mM DPPH (in 95% ethanol) and 0.5 ml of the test compound. After 20 min. incubation at room temperature A517 was determined. The scavenging activity was measured as the decrease in A517 of the DPPH radical expressed as a percentage of the control value.
A general note: DPPH is a stable violet radical that fades when it is reduced.

Series [2] concerns adult castrated male rats. The series is described as follows: Androgen-dependent regrowth of ventral prostate and seminal vesicles in castrated rats, compounds given orally in drinking water. The series is classed as in vivo, rat. To be noted: for Dose dependence of the effect on prostate re-growth: 0.01 to 10 mg/l drinking water; for IC50: Rattus norvegicus, feed or water, read-out: IC50 on prostate re-growth; for Relative potency on testosterone-mediated prostate re-growth: comparison among compounds. The source says:
The effects of orally administered compounds of the invention, MLP-76,77, 79 and 92, on androgen-dependent prostatal regrowth in adult castrated male rats was investigated Male rats (2.5 months old) were castrated under anesthesia and left to recover for 7 days. During this period, the average weight of the prostate decreased by approximately 75%. Beginning on day 7 after castration, the rats were given daily subcutaneous injections of either oil vehicle (control) or oil vehicle containing testosterone propionate (1 mg/kg body weight per day) for 4 days at 1 hour before lights off. […] In the morning following the last inject ion, the rats were sacrificed and the seminal vesicles and ventral prostates were removed and weighed.

Series [3] in a line: Distribution of 125I-labelled compounds in organs of the adult male rat 1 h after ip injection. Type of series: in vivo. To be noted: retention pattern 1 h after ip injection. Here is the method:
The distribution of MLP-92 and MLP-77 in various organs of the rat was examined. 100 mcl saline containing 1×10^6 dpm ^125l-labelled compounds of the invention (labelling as described by Vakkuri et al., Acta Endocrinol., 106, 152-7, 1984) were injected (ip) to adult male rats. The rats were sacrificed 1 h after injection and various organs were dissected out and weighted. The contents of the radioactive derivatives in the rat organs (Brain, Hypothalamus, Pituitary, Eyes, Thyroid, Heart, Lungs, Kidneys. Spleen, Testis, Prostate and seminal vesicle) were determined using a gamma-counter and the results are presented as dpm/g organ wet-weight.

Where [4] appears, read: Table 2, 10 mg/l drinking water.
[5] abbreviates: Table 2, testosterone + compound 10 mg/l drinking water, 4 days.
The mark [6] stands for this setting: Table 3, 0.01 mg/l drinking water.
[7] abbreviates: Table 3, 0.1 mg/l drinking water.
[8] abbreviates: Table 3, testosterone + compound 0.01 mg/l drinking water.
Setting [9] is: Table 3, testosterone + compound 0.1 mg/l drinking water.
Where [10] appears, read: Table 2, testosterone propionate 1 mg/kg per day sc alone, 4 days.
The mark [11] stands for this setting: Table 3 (second group), testosterone propionate 1 mg/kg per day sc alone.

Take `O=C(O)C=Cc1ccc(O)c(O)c1` [Caffeic acid, 3,4-Dihydroxycinnamic acid]: in series [1], the “Relative ratio of scavenging activity compared with Vitamin E (tocopherol)” value (from here on “Relative ratio of scavenging activity”) is reported as 2.8.

Regarding `COc1ccc2[nH]cc(CCNCC3CCCO3)c2c1` (stereo not drawn) [MLP-92, 5-Methoxy-3-(2-(tetrahydro2-furylmethylamino)ethyl)indole], the “Dose dependence of the effect on prostate re-growth” value in series [2] was “dose-dependent”. Besides, in series [2], the IC50 was found to be 88 nM. Further, the results for the “A = % inhibition of testosterone-stimulated growth (prostate)” value (from here on “A = % inhibition”) in series [2] (setting [4]), in series [2] (setting [6]) and in series [2] (setting [7]) were 66%, 19% and 62%, respectively. The “B = % inhibition of testosterone-stimulated growth (seminal vesicles)” value (shortened to “B = % inhibition”) in series [2] (setting [4]) came out at 51%; in series [2] (setting [6]), 28%; in series [2] (setting [7]), 37%. The “Prostate (mg/g body weight)” value is on record as 0.49 ± 0.04 mg/g body weight in series [2] (setting [5]), 0.57 ± 0.04 mg/g body weight in series [2] (setting [8]) and 0.46 ± 0.1 mg/g body weight in series [2] (setting [9]). Further, the “Seminal Vesicles (mg/g body weight)” value in series [2] (setting [5]) amounted to 1.54 ± 0.21 mg/g body weight; in series [2] (setting [8]), 1.57 ± 0.25 mg/g body weight; in series [2] (setting [9]) it was 1.45 ± 0.13 mg/g body weight. In series [2] (Table 2), the “Relative potency on testosterone-mediated prostate re-growth” value is “more potent then MLP-79, MLP-77 and melatonin”. In addition, the “Accumulation in the prostate” value in series [3] is “selective accumulation”.

In the case of `CCC(=O)O[C@H]1CC[C@H]2[C@@H]3CCC4=CC(=O)CC[C@]4(C)[C@H]3CC[C@]12C` [Testosterone, testosterone propionate, reference compound], in series [2] (setting [10]), the “Prostate (mg/g body weight)” value was found to be 0.77 ± 0.02 mg/g body weight and the “Seminal Vesicles (mg/g body weight)” value came out at 2.38 ± 0.16 mg/g body weight. In addition, in series [2] (setting [11]), the “Prostate (mg/g body weight)” value was determined as 0.62 ± 0.1 mg/g body weight and the “Seminal Vesicles (mg/g body weight)” value was found to be 1.95 ± 0.24 mg/g body weight.

As for `COc1ccc2[nH]cc(CCNC(=O)/C=C/c3ccc(O)c(O)c3)c2c1` [caffeic acid 5-methoxytryptamide, Caffeic Acid 5-Methoxytryptamide], in series [1], the “Relative ratio of scavenging activity” value came to 3.2.

Regarding `COc1ccc2[nH]cc(CCNC(=O)c3ccccc3OC(C)=O)c2c1` [MLP-77], in series [2] (setting [4]), the “A = % inhibition” value was found to be 40% and the “B = % inhibition” value is on record as −18%. Besides, in series [2] (setting [5]), the “Prostate (mg/g body weight)” value worked out at 0.57 ± 0.05 mg/g body weight and the “Seminal Vesicles (mg/g body weight)” value was found to be 2.69 ± 0.49 mg/g body weight. In addition, the “Accumulation in the prostate” value in series [3] is reported as “selective accumulation”.

Regarding `O=C1O[C@H]([C@@H](O)CO)C(O)=C1O` [Vitamin C (ascorbic acid), ascorbic acid], the “Relative ratio of scavenging activity” value in series [1] is reported as 1.

Turning to `COc1ccc2[nH]cc(CCNC(=O)c3ccco3)c2c1` [MLP-76, 5-Methoxy-3-(2-(2-furamido)ethyl)indole], in series [2] (setting [4]), the “A = % inhibition” value is reported as 66% and the “B = % inhibition” value turned out to be 44%. Besides, in series [2] (setting [5]), the “Prostate (mg/g body weight)” value turned out to be 0.49 ± 0.09 mg/g body weight and the “Seminal Vesicles (mg/g body weight)” value was 1.82 ± 0.25 mg/g body weight. Also, in series [2] (Table 2), the “Relative potency on testosterone-mediated prostate re-growth” value is “more potent then MLP-79, MLP-77 and melatonin”.

Consider tocopherol [Vitamin E (tocopherol)], for which the “Relative ratio of scavenging activity” value in series [1] turned out to be 1.

`COc1ccc2[nH]cc(CCNC(C)=O)c2c1` [Melatonin, reference compound]: the “Dose dependence of the effect on prostate re-growth” value in series [2] is reported as “dose-dependent”. In series [2] (dose-dependent effect, compound in drinking water), the 50% inhibitory concentration (IC50) turned out to be 230 nM. Besides, the “A = % inhibition” value in series [2] (setting [4]) is listed as 44%; in series [2] (setting [6]), −15%; in series [2] (setting [7]) it was 31%. For the same molecule, the results for the “B = % inhibition” value in series [2] (setting [4]), in series [2] (setting [6]) and in series [2] (setting [7]) were 30%, 10% and 30%, respectively. For the same molecule, the “Prostate (mg/g body weight)” value in series [2] (setting [5]) is given as 0.55 ± 0.08 mg/g body weight; in series [2] (setting [8]) it was 0.66 ± 0.08 mg/g body weight; in series [2] (setting [9]), 0.54 ± 0.09 mg/g body weight. The figures for the “Seminal Vesicles (mg/g body weight)” value in series [2] (setting [5]), in series [2] (setting [8]) and in series [2] (setting [9]) were 1.88 ± 0.03 mg/g body weight, 1.81 ± 0.28 mg/g body weight and 1.55 ± 0.24 mg/g body weight, respectively. Besides, in series [2] (in the presence of testosterone (Table 2)), the “Effect on testosterone-mediated re-growth of the ventral prostate gland” value is on record as “decreased significantly”.

In the case of `COc1ccc2[nH]cc(CCNC(=O)C3CCCO3)c2c1` (stereo not drawn) [MLP-79, 5-Methoxy-3-(2-(tetrahydro-2-furamido)ethyl)indole], in series [2] (setting [4]), the “A = % inhibition” value stood at 54% and the “B = % inhibition” value turned out to be 23%. Also, in series [2] (setting [5]), the “Prostate (mg/g body weight)” value stood at 0.50 ± 0.04 mg/g body weight and the “Seminal Vesicles (mg/g body weight)” value was determined as 2.00 ± 0.39 mg/g body weight. The “Accumulation in the prostate” value in series [3] was “selective accumulation”.

By IC50 is commonly meant the concentration needed to halve the response being measured.

For the origin of these results see US6858642B1, “Indole derivatives” (Neurim Pharmaceuticals (1991) Ltd., priority 1999, dated 2005).
